SMILES strings stand for the structures. Like-named read-outs stand apart in the source and are kept apart here. Some results are limits rather than exact numbers.

The target of one assay is ASK1/MAP3K5 (Homo sapiens (Human), UniProt Q99683). In words: ASK1/MAP3K5 assay by Reaction Biology Corp. The class given is biochemical. The method, then:
ASK1/MAP3K5 was used as the protein kinase and 20 μM of myelin basic protein (MBP) and 10 μM ATP were used as the substrate.

In assay [1] the target is ASK1 T838 auto phosphorylation in HEK-293T cells (Homo sapiens (Human), UniProt Q99683). In words: ASK1 (AUTO PHOS T838) assay, MSD format. The class given is cell-based.
The mark [2] stands for this setting: 20 μM myelin basic protein (MBP), 10 μM ATP.
Where [3] appears, read: HEK 293T cells transfected with ASK1-V5 full length plasmid, compounds 1 hr at 37° C., read-out: IC50.

ASK1/MAP3K5, sequence (Q99683 whole entry): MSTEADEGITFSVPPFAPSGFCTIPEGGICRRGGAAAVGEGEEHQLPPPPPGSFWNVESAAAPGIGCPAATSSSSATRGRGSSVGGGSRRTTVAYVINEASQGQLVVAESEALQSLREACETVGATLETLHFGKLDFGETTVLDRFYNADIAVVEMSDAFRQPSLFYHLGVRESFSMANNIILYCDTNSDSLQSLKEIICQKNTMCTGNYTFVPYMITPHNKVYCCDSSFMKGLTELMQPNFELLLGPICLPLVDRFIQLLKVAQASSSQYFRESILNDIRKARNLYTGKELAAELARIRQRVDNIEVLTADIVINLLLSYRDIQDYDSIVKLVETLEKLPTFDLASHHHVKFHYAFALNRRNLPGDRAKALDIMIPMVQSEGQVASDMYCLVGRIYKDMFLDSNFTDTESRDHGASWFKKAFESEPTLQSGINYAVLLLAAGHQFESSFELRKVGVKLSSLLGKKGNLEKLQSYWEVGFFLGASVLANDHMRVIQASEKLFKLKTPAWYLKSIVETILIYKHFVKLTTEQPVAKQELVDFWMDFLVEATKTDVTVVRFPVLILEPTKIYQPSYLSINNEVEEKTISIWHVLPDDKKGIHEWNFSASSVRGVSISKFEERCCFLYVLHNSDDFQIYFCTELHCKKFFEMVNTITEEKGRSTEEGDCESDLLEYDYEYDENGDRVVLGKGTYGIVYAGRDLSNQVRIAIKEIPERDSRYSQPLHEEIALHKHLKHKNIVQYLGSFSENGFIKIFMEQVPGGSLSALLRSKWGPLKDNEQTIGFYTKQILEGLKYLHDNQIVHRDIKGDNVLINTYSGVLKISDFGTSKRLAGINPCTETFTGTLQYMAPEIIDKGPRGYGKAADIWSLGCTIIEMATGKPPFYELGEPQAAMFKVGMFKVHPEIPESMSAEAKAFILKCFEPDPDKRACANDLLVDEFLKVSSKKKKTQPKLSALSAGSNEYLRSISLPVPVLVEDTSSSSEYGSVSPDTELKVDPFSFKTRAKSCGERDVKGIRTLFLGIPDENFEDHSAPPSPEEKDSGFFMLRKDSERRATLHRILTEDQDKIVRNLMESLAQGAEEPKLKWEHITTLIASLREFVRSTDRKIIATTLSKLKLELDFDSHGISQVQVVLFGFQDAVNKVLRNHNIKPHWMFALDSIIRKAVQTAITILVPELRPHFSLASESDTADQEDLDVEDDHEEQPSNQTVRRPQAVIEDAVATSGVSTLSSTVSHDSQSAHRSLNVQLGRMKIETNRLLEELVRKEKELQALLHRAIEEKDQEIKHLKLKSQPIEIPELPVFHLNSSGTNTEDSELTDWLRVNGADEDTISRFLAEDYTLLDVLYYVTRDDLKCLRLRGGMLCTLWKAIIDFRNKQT
ASK1 T838 auto phosphorylation in HEK-293T cells, sequence (Q99683 whole entry): as above

Consider `C[C@H]1CCCOc2cc(S(C)(=O)=O)c(Br)cc2C(=O)Nc2cccc(n2)-c2nncn21` [Example 119, (S)-5^5-Bromo-10-methyl-5^4-(methylsulfonyl)-1^4H-6-oxa-3-aza-2(2,6)-pyridina-1(3,4)-triazola-5(1,2)-benzenacyclodecaphan-4-one], for which the concentration for half-maximal inhibition (IC50) at ASK1/MAP3K5 (setting [2]) is under 100 nM; in assay [1] (setting [3]), under 1000 nM.
For the compound `C[C@H]1CCCOc2cc(N3CCN(C)CC3)ccc2C(=O)Nc2cccc(n2)-c2nncn21` [Example 122, (S)-10-Methyl-5^4-(4-methylpiperazin-1-yl)-1^4H-6-oxa-3-aza-2(2,6)-pyridina-1(3,4)-triazola-5(1,2)-benzenacyclodecaphan-4-one], the IC50 was under 100 nM against ASK1/MAP3K5 (setting [2]) and under 1000 nM in assay [1] (setting [3]).
The like results for `C[C@@H]1CCCOc2cc(N3CCN(C)CC3)ccc2C(=O)Nc2cccc(n2)-c2nncn21` [Example 123, (R)-10-Methyl-5^4-(4-methylpiperazin-1-yl)-1^4H-6-oxa-3-aza-2(2,6)-pyridina-1(3,4)-triazola-5(1,2)-benzenacyclodecaphan-4-one] were, in that order, 1000 to 10000 nM and 1000 to 10000 nM.
The like results for `C[C@H]1CCOc2cc(F)c(Br)cc2C(=O)Nc2cccc(n2)-c2nncn2C1` [Example 124, (S)-5^5-Bromo-5^4-fluoro-9-methyl-1^4H-6-oxa-3-aza-2(2,6)-pyridina-1(3,4)-triazola-5(1,2)-benzenacyclodecaphan-4-one] were, in that order, under 100 nM and under 1000 nM.
The like results for `C[C@@H]1CCOc2cc(F)c(Br)cc2C(=O)Nc2cccc(n2)-c2nncn2C1` [Example 125, (R)-5^5-Bromo-5^4-fluoro-9-methyl-1^4H-6-oxa-3-aza-2(2,6)-pyridina-1(3,4)-triazola-5(1,2)-benzenacyclodecaphan-4-one] were, in that order, 100 to 1000 nM and 1000 to 10000 nM.
Take `C[C@H]1CCOc2cc(F)c(C#CC3(C)COC3)cc2C(=O)Nc2cccc(n2)-c2nncn2C1` [Example 134, (S)-5^4-Fluoro-9-methyl-5^5-((3-methyloxetan-3-yl)ethynyl)-1^4H-6-oxa-3-aza-2(2,6)-pyridina-1(3,4)-triazola-5(1,2)-benzenacyclodecaphan-4-one]: the figures for the half-inhibitory concentration (IC50) (on ASK1/MAP3K5; in assay [1]) were under 100 nM and under 1000 nM, respectively.
As for `COCCOc1cc2c(cc1F)OCC[C@H](C)Cn1cnnc1-c1cccc(n1)NC2=O` [Example 135, (S)-5^4-Fluoro-5^5-(2-methoxyethoxy)-9-methyl-1^4H-6-oxa-3-aza-2(2,6)-pyridina-1(3,4)-triazola-5(1,2)-benzenacyclodecaphan-4-one], the IC50 against ASK1/MAP3K5 (setting [2]) was under 100 nM; in assay [1] (setting [3]), under 1000 nM.
For `C[C@H]1CCCn2cnnc2-c2cccc(n2)NC(=O)c2cc(Br)ccc2O1` [Example 136, (S)-5^5-Bromo-7-methyl-1^4H-6-oxa-3-aza-2(2,6)-pyridina-1(3,4)-triazola-5(1,2)-benzenacyclodecaphan-4-one], the half-maximal inhibitory concentration (IC50) on ASK1/MAP3K5 (setting [2]) was under 100 nM; in assay [1] (setting [3]), under 1000 nM.
The like results for `C[C@@H]1CCCn2cnnc2-c2cccc(n2)NC(=O)c2cc(Br)ccc2O1` [Example 137, (R)-5^5-Bromo-7-methyl-1^4H-6-oxa-3-aza-2(2,6)-pyridina-1(3,4)-triazola-5(1,2)-benzenacyclodecaphan-4-one] were, in that order, under 100 nM and 1000 to 10000 nM.
In the same order, the values of `C[C@H]1CCCn2cnnc2-c2cccc(n2)NC(=O)c2cc(N3CCN(C)CC3)ccc2O1` [Example 140, (S)-7-Methyl-5^5-(4-methylpiperazin-1-yl)-1^4H-6-oxa-3-aza-2(2,6)-pyridina-1(3,4)-triazola-5(1,2)-benzenacyclodecaphan-4-one] are under 100 nM and under 1000 nM.
`C[C@@H]1CCCn2cnnc2-c2cccc(n2)NC(=O)c2cc(N3CCN(C)CC3)ccc2O1` [Example 141, (R)-7-Methyl-5^5-(4-methylpiperazin-1-yl)-1^4H-6-oxa-3-aza-2(2,6)-pyridina-1(3,4)-triazola-5(1,2)-benzenacyclodecaphan-4-one]: the values for the IC50 (against ASK1/MAP3K5 (setting [2]); in assay [1] (setting [3])) were under 100 nM and under 1000 nM, respectively.
On to `C[C@H]1CCCn2cnnc2-c2cccc(n2)NC(=O)c2cc(N3CCOCC3)ccc2O1` [Example 142, (S)-7-Methyl-5^5-morpholino-1^4H-6-oxa-3-aza-2(2,6)-pyridina-1(3,4)-triazola-5(1,2)-benzenacyclodecaphan-4-one], for which the IC50 is under 100 nM against ASK1/MAP3K5 (setting [2]) and under 1000 nM in assay [1] (setting [3]).
In the case of `C[C@@H]1CCCn2cnnc2-c2cccc(n2)NC(=O)c2cc(N3CCOCC3)ccc2O1` [Example 143, (R)-7-Methyl-5^5-morpholino-1^4H-6-oxa-3-aza-2(2,6)-pyridina-1(3,4)-triazola-5(1,2)-benzenacyclodecaphan-4-one], the values for the half-inhibitory concentration (IC50) (against ASK1/MAP3K5 (setting [2]); in assay [1] (setting [3])) were under 100 nM and under 1000 nM, respectively.
In the same order, the values of `C[C@H]1CCCn2cnnc2-c2cccc(n2)NC(=O)c2cc(-c3ccncc3)ccc2O1` [Example 144, (S)-7-Methyl-5^5-(pyridin-4-yl)-1^4H-6-oxa-3-aza-2(2,6)-pyridina-1(3,4)-triazola-5(1,2)-benzenacyclodecaphan-4-one] are under 100 nM and under 1000 nM.
The like results for `C[C@@H]1CCCn2cnnc2-c2cccc(n2)NC(=O)c2cc(-c3ccncc3)ccc2O1` [Example 145, (R)-7-Methyl-5^5-(pyridin-4-yl)-1^4H-6-oxa-3-aza-2(2,6)-pyridina-1(3,4)-triazola-5(1,2)-benzenacyclodecaphan-4-one] were, in that order, under 100 nM and under 1000 nM.
On to `C[C@H]1CCCn2cnnc2-c2cccc(n2)NC(=O)c2cc(-c3cnn(CCN(C)C)c3)ccc2O1` [Example 146, (S)-5^5-(1-(2-(Dimethylamino)ethyl)-1H-pyrazol-4-yl)-7-methyl-1^4H-6-oxa-3-aza-2(2,6)-pyridina-1(3,4)-triazola-5(1,2)-benzenacyclodecaphan-4-one], for which the IC50 against ASK1/MAP3K5 (setting [2]) was under 100 nM; in assay [1] (setting [3]), under 1000 nM.
The like results for `C[C@@H]1CCCn2cnnc2-c2cccc(n2)NC(=O)c2cc(-c3cnn(CCN(C)C)c3)ccc2O1` [Example 147, (R)-5^5-(1-(2-(Dimethylamino)ethyl)-1H-pyrazol-4-yl)-7-methyl-1^4H-6-oxa-3-aza-2(2,6)-pyridina-1(3,4)-triazola-5(1,2)-benzenacyclodecaphan-4-one] were, in that order, under 100 nM and under 1000 nM.
`Cc1cn(-c2ccc3c(c2)C(=O)Nc2cccc(n2)-c2nncn2CCC[C@H](C)O3)cn1` [Example 148, (S)-7-Methyl-5^5-(4-methyl-1H-imidazol-1-yl)-1^4H-6-oxa-3-aza-2(2,6)-pyridina-1(3,4)-triazola-5(1,2)-benzenacyclodecaphan-4-one]: the IC50 was under 100 nM against ASK1/MAP3K5 and under 1000 nM in assay [1] (setting [3]).
On to `Cc1cn(-c2ccc3c(c2)C(=O)Nc2cccc(n2)-c2nncn2CCC[C@@H](C)O3)cn1` [Example 149, (R)-7-Methyl-5^5-(4-methyl-1H-imidazol-1-yl)-1^4H-6-oxa-3-aza-2(2,6)-pyridina-1(3,4)-triazola-5(1,2)-benzenacyclodecaphan-4-one], for which the IC50 on ASK1/MAP3K5 is under 100 nM; in assay [1] (setting [3]), under 1000 nM.
As to `C[C@H]1CCCn2cnnc2-c2cccc(n2)NC(=O)c2cc(C#N)ccc2O1` [Example 150, (S)-7-Methyl-4-oxo-1^4H-6-oxa-3-aza-2(2,6)-pyridina-1(3,4)-triazola-5(1,2)-benzenacyclodecaphane-5^5-carbonitrile], the figures for the IC50 (at ASK1/MAP3K5 (setting [2]); in assay [1] (setting [3])) were 100 to 1000 nM and under 1000 nM, respectively.
The like results for `C[C@@H]1CCCn2cnnc2-c2cccc(n2)NC(=O)c2cc(C#N)ccc2O1` [Example 151, (R)-7-Methyl-4-oxo-1^4H-6-oxa-3-aza-2(2,6)-pyridina-1(3,4)-triazola-5(1,2)-benzenacyclodecaphane-5^5-carbonitrile] were, in that order, under 100 nM and under 1000 nM.
For `O=C1Nc2cccc(n2)-c2nncn2CCCCOc2c(Br)cccc21` [Example 165, 5^3-Bromo-1^4H-6-oxa-3-aza-2(2,6)-pyridina-1(3,4)-triazola-5(1,2)-benzenacyclodecaphan-4-one], the IC50 fell in the range of 100 to 1000 nM against ASK1/MAP3K5 (setting [2]) and 1000 to 10000 nM in assay [1] (setting [3]).
With `O=C1Nc2cccc(n2)-c2nncn2C/C=C/COc2ccc(N3CCOCC3)cc21` [Example 168, (E)-5^5-Morpholino-1^4H-6-oxa-3-aza-2(2,6)-pyridina-1(3,4)-triazola-5(1,2)-benzenacyclodecaphan-8-en-4-one], the 50% inhibitory concentration (IC50) was under 100 nM on ASK1/MAP3K5 and under 1000 nM in assay [1] (setting [3]).
As for `O=C1Nc2cccc(n2)-c2nncn2C/C=C\CCOc2ccccc21` [Example 174, (E)-1^4H-6-Oxa-3-aza-2(2,6)-pyridina-1(3,4)-triazola-5(1,2)-benzenacycloundecaphan-9-en-4-one], the IC50 on ASK1/MAP3K5 (setting [2]) is under 100 nM; in assay [1] (setting [3]), under 1000 nM.
In the same order, the values of `O=C1Nc2cccc(n2)-c2nncn2C/C=C/CCOc2ccccc21` [Example 175, (Z)-1^4H-6-oxa-3-aza-2(2,6)-pyridina-1(3,4)-triazola-5(1,2)-benzenacycloundecaphan-9-en-4-one] are under 100 nM and under 1000 nM.
In the same order, the values of `O=C1Nc2cccc(n2)-c2nncn2C/C=C\CCOc2cc(F)c(Br)cc21` [Example 176, (E)-5^5-Bromo-5^4-fluoro-1^4H-6-oxa-3-aza-2(2,6)-pyridina-1(3,4)-triazola-5(1,2)-benzenacycloundecaphan-9-en-4-one] are under 100 nM and 1000 to 10000 nM.
In the same order, the values of `O=C1Nc2cccc(n2)-c2nncn2C/C=C/CCOc2cc(F)c(Br)cc21` [Example 177, (Z)-5^5-Bromo-5^4-fluoro-1^4H-6-oxa-3-aza-2(2,6)-pyridina-1(3,4)-triazola-5(1,2)-benzenacycloundecaphan-9-en-4-one] are under 100 nM and 1000 to 10000 nM.

The values are drawn from patent US11168095B2, “ASK1 inhibiting agents” (BIOGEN MA INC., priority 2017, dated 2021).
